Each structure is given as a SMILES string. Some results are limits rather than exact numbers.

Results on one compound are retold here after US20250134860A1, “NOVEL COMPOUND, AND COMPOSITION FOR PREVENTING, ALLEVIATING OR TREATING BACTERIAL INFLAMMATION AND INFLAMMASOME-MEDIATED DISEASES, COMPRISING SAME AS ACTIVE INGREDIENT” (Quorum Bio Co., Ltd., priority 2022, published 2025).

A short description of data set [1]: Plasma stability in human plasma (LC-MS/MS). To be noted: 37° C., 0, 30, 60, 120, 240 minutes. The format is in vitro ADME. The method, then: The compounds of Examples 1-2 and Comparative Example, and the substance used as the positive control (Eucatropine, Loterpresnol) were dissolved in DMSO to prepare a stock solution having a concentration of 10 mM. The stock solution of each test substance was then diluted to prepare 0.2 mM and 1 mM working solutions and used for the test (For the comparative example compound, 70% acetonitrile was used as a solvent, and for the compound of Example 1-2, 50% acetonitrile was used as a solvent).
The positive control and the standard solution of the test substance were placed in tubes containing two types of plasma (human and rat) at concentrations of 1 μM and 5 μM, respectively, and then incubated at 37° C. for a prescribed time (0, 30, 60, 120, 240 minutes) while shaking and mixing. At each time point, the mixture sample was dispensed in 100 μl increments into a cell culture plate (96-well plate) containing 400 μl of quench reagent to terminate the test, After centrifugation (5000×g, 10 min), 100 μl of the supernatant was taken out, mixed with 200 μl of ultrapure water, and the solution was then injected into a LC-MS/MS system to analyze the drug in each time zone. Thereby, the plasma stability of the compounds of Comparative Example and Example 1-2 was evaluated.

The subject of data set [2] is human monocyte cell line (THP-1). In words: Cytotoxicity in human monocyte cell line (CCK-8). The format is cell-based. The conditions noted are these: 0.002, 0.02, 0.2, 2 μM, 24 hours, at any concentration. The method, then:
The human monocyte cell line (THP-1) was cultured in a 10% fetal bovine serum (Hyclone, Waltham, MA, USA), and a RPMI 1640 medium supplemented with 2.05 mM L-glutamate and antibiotics (100 units/ml penicillin, 100 μg/ml streptomycin), and then seeded in a 96 well microtiter plate at a concentration of 1×10^5 cells/well. The compound of Example 1-2 was diluted to a final concentration of 0.002 μM, 0.02 μM, 0.2 μM, and 2 μM, cells in each well were treated and cultured for 24 hours. Then, the cultured cells were treated with 10 μl of Cell Counting Kit-8 (CCK-8, DOJINDO, Kumamoto, Japan) solution in each well, and then the absorbance was measured at 450 nm for each time zone (1 h, 2 h, 3 h), and the results were derived based on the absorbance data from the last time zone, 3 h. At this time, the cell viability of untreated cells was set as 100% as the reference, and the cell viability of the cells treated with the sample was calculated and shown in FIG. 19.

Data set [3] deals with Sprague-Dawley rat bone marrow cells. In words: Rat micronucleus test. To be noted: rat, in vivo. The method, then:
Hair was removed from the administration site (subcutaneous) of the SD rats, the administration concentration of the example compounds were set to a low dose (500 mg/kg/day), a medium dose (1000 mg/kg/day), and a high dose (2000 mg/kg/day), and administered subcutaneously to the left and right […] of the test system (10 ml/kg/day each), and the compound was administered subcutaneously in divided doses to the left and right […] of the test system (10 ml/kg/day each).
24 hours after the second administration of the test substance, the femur was removed from each group to collect bone marrow cells. 0.5 mL of 10% neutral formalin was added to the bone marrow cell suspension, fixed for 5 minutes, centrifuged for 5 minutes (4° C., 1,000 rpm, Micro17TR, Hanil Science Industrial, Republic of Korea) to remove the supernatant. Then, 0.3 mL of 10% neutral formalin was added to the precipitated bone marrow cells, suspended, filtered through a cell strain, and transferred to a storage tube. The fixed bone marrow cell suspension was dropped onto a cover glass, and then covered with a slide glass coated with 20 μL of 0.05% acridine orange to prepare an observation slide. The observation slide was observed under a microscope (600× magnification, BX51, Olympus, Japan).
As an indicator of bone marrow cell proliferation inhibition, 500 total red blood cells per individual were observed, and the ratio of polychromatic red blood cells to total red blood cells (PCE/(PCE+NCE)) was calculated. As a positive control, cyclophosphamide (Cas No: 50-18-0) was administered at a dose of 20 mg/kg/day.

Data set [4] concerns gingipain genes (rgpA, rgpB, kgp). The experiment in a line: Inhibitory effect on gingipain expression of P. gingivalis (RT-qPCR). To be noted: DPD 10 μM + compound 2 μM; 48 hours; normalized to 16s rRNA. The format is cell-based, Porphyromonas gingivalis. On the procedure: The compounds of Examples were respectively treated onto the medium cultured with P. gingivalis, and the expression levels of three gingipain proteins (lysine-gingipain (Kgp), arginine-gingipain A (RgpA), and arginine-gingipain B (RgpB)) produced by P. gingivalis, which are major virulence factors and proteolytic enzymes, were confirmed.
The culture medium containing 10 μM of DPD (4,5-dihydroxy-2,3-pentane dione), which is a precursor of the bacterial signal substance (Autoinducer-2), and the culture medium containing 2 μM of the example compound or not were respectively dispensed into a cell culture plate (48 well plate), and then P. gingivalis (2×10^8 cell/ml) were inoculated for each group. The culture medium cultured with bacteria was cultured at 37° C. under anaerobic conditions (10% H2, 10% CO2, and 80% N2) for 48 hours.
After 48 hours, each culture medium was centrifuged at 13,000 rpm for 1 minute to remove the supernatant, and total RNA was extracted using easy-BLUE™ Total RNA Extraction kit (iNtRON Biotechnology, Sungnam, Korea) to synthesize cDNA, and then the expression of the gingipain gene was confirmed by real-time PCR method. cDNA was synthesized using AccuPower® CycleScript RT PreMix dN6 (Bioneer, Daejeon, Korea), and real-time (quantitative) reverse transcription PCR (RT-qPCR) was carried out using Power SYBR™ Green PCR Master Mix (Applied Biosystems, Foster City, CA, USA).
RT-qPCR amplification conditions were as follows: after enzyme activation at 95° C. for 3 minutes, denaturation at 95° C. for 10 seconds and primer annealing at 60° C. for 30 seconds were repeated 40 times, and analysis was performed using a Bio-Rad CFX Connect Real-Time PCR Detection System (Bio-Rad, Hercules, CA, USA). To normalize the expression level of the gingipain gene, the 16s rRNA gene was used, and the gene expression level was calculated using the Comparative Ct Method (ΔΔCt), which is shown in FIGS. 5a to 5c.

Data set [5] has as its system P. gingivalis. The experiment in a line: Inhibitory effect on P. gingivalis biofilm formation (crystal violet, OD590nm). The format is cell-based, Porphyromonas gingivalis.

For `Cc1ccc(C(=C2c3ccccc3C(=O)N2C)c2ccc(C)cc2)cc1` [Example 1-2, 3-(di-p-tolylmethylene)-2-methylisoindolin-1-one], the “amount of the compound remaining in the plasma” value in data set [1] is “remained stable”. In addition, the “cytotoxicity (cell viability, CCK-8)” value in data set [2] is “did not exhibit cytotoxicity”. In addition, the “ratio of polychromatic red blood cells to the total number of red blood cells, relative to negative control” value in data set [3] (Sprague-Dawley, 24 h) is ≥ 20 % of the negative control. Besides, in data set [3], the “appearance frequency of micronucleated polychromatic erythrocytes (MNPCE/PCE) compared to the negative control” value is given as “did not show a statistically significant difference”. In data set [4], the “expression levels of three gingipain genes (rgpA, rgpB, kgp) increased by DPD” value was “reduced”. Moreover, in data set [5] (DPD 10 μM + compound 0.002, 0.02, 0.2, 2 μM, 48 hours, anaerobic, OD590nm), the “biofilm formation of P. gingivalis increased by DPD” value was “inhibited in a concentration-dependent manner”. The “ability to inhibit biofilm formation of P. gingivalis at the same concentration” value in data set [5] (Example 1-2 against comparative example compound, 0.002-2 μM with DPD) is recorded as “better ability to inhibit biofilm formation than the comparative example compound”.
